Data reported in PMC7180617, “Biological Evaluation of 3-Benzylidenechromanones and Their Spiropyrazolines-Based Analogues” (Molecules, 2020).

How the values were obtained:
erythrocytes = experiment: Red blood cell morphology (phase-contrast microscopy); type: cell-based; conditions: 2% erythrocyte suspension, 37 °C, 1 h, phase contrast 400×
Method: Studies on erythrocyte morphology complement the erythrotoxicity studies because they provide information on potential immediate interactions of the tested compounds with the erythrocyte lipid bilayer, and the possibility of creating pathological forms of erythrocytes, which are not able to carry oxygen. The effects of the synthesized compounds, and the two reference compounds chromanone and flavanone, on the morphology of erythrocytes is shown in Figure 6. Briefly, 2% RBC suspension was incubated with 0.9% NaCl (control samples) or tested compounds at various concentrations corresponding to their activity towards cancer cell lines.
A 2% erythrocyte suspension was incubated at 37 °C for one hour with various concentrations of synthesized compounds. The morphology of the RBCs was examined by means of a phase contrast Opta-Tech inverted microscope, at 400× magnification, equipped with software (OptaView 7) for image analysis.

COLO-205 cells = experiment: MTT cytotoxicity assay, COLO-205; type: cell-based, human; conditions: Homo sapiens, COLO 205, 48 h, 46 h + 2 h incubation
Method: The first stage of the study used the MTT viability test to determine the cytotoxicity of ten compounds, i.e., 3-arylidenechromanone, 3-arylideneflavanone, spirochromanone and spiro- flavanone analogues, against four human cancer cell lines: HL-60, NALM-6, WM-115 and COLO-205.
Cytotoxicity was tested against human skin melanoma cells (WM-115, ECACC, Salisbury, UK), two human leukemia cell lines, viz. promyelocytic leukemia (HL-60) and lymphoblastic leukemia (NALM-6), and human colon adenocarcinoma cells (COLO-205). The cell lines COLO-205, WM-115 and HL-60 used in this work came from the ATCC American Type Culture Collection (Manassas, VA, USA), whereas the NALM-6 cell line was purchased from the German Collection of Microorganisms and Cell Cultures (Braunschweig, Germany). The leukaemia cells and colon adenocarcinoma were cultured in RPMI 1640 medium (Invitrogen, Grand Island, NY, USA) supplemented with 10% fetal bovine serum (FBS; Invitrogen) and gentamicin (25 µg/mL; KRKA, Novo Mesto, Slovenia). For melanoma WM-115 cells, Dulbecco’s minimal essential medium (DMEM; Invitrogen) was used. All cell lines were cultured at 37 °C in a humidified atmosphere of 5% CO2 in air.
For all experiments, the studied compounds were dissolved in DMSO (Sigma-Aldrich) and were further diluted in culture medium to obtain <0.1% DMSO concentration. In each experiment, controls with and without 0.1% DMSO were performed. The cytotoxicity of all compounds and of the reference compounds 4-chromanone and 3-benzylideneflavanone was determined by the MTT assay, i.e., 3-(4,5-dimethylthiazol-2-yl)-2,5-diphenyltetrazolium bromide (Sigma, St. Louis, MO, USA), which measures cellular dehydrogenase activity. Exponentially growing cells were seeded a day before the experiment onto a 96-well microplates (Nunc, Roskilde, Denmark) at a density up to 6–8 × 10^3 cells/well (depending on the cell line). Subsequently, various concentrations of the studied compounds freshly prepared in DMSO and diluted with complete culture medium were added. All compounds were tested for their cytotoxicity at a final concentration of 10^−7–10^−3 M. After 46 h of incubation with the studied compounds, the cells were treated with the MTT reagent and incubation was continued for another two hours. MTT – formazan crystals were dissolved in 20% sodium dodecyl sulphate (SDS, Sigma-Aldrich) and 50% DMF (Sigma-Aldrich) at pH 4.7; following this, absorbance was read at 570 nm on a multifunctional Victor ELISA-plate reader (Perkin Elmer, Turku, Finland). The IC50 values, i.e., the concentration of the test compound required to reduce the cell survival fraction to 50% of controls, were calculated from concentration-response curves and used as a measure of the sensitivity of the cells to a given treatment. As a control, cultured cells were grown in the absence of drugs. The data points represent the means of at least five to ten repeats ± standard deviation (S.D.).

[1] = Lipophilicity (logP) by RP-TLC; conditions: RP-18 F254S TLC plates

- chromatographic logP [1]: 4.23
Structure (SMILES): O=C1/C(=C/c2ccccc2)COc2ccccc21 [Compound 7, (E)-3-benzylidene-chroman-4-one]
- erythrocyte morphology (in words) (erythrocytes): primarily led to echinocytosis, however single anisocytes could also be detected
- IC50 (COLO-205 cells): 31 ± 1.4 µM
